From patent US8629272B2, “Tricyclic pyrimidine derivatives as wnt antagonists” (Deutsches Krebsforschungszentrum, priority 2009, dated 2014)

Key:
Type in all cases: cell-based
HepG2 = assay: Cytotoxicity in HepG2, CellTiterGlo; conditions: 24 h
Procedure: (§1) For examination of cytotoxicity in these cancer cell lines the commercial available CellTiterGlo® Reagent (Promega, USA) was used according to the manufactor. Compounds were applied to Hek293T (denoted (1)) or HepG2 (denoted (2)), cultured in Dulbecco's Modified Eagles Medium, supplemented with 10% fetal calf serum and 1% penicillin/streptomycin. Cells were grown in T75 flasks at 37° C., 5% CO2 and trypsinized when 60-80% confluent by adding 2 ml of 0.25% Trypsin-EDTA solution. Cells were then re-suspended into culture medium yielding approx. 4000 cells (1) or 4500 cells (2), suspended in 30 microl medium. 48 h after cell seeding, compounds were added to yield the desired final concentrations. 24 h after compound addition cytotoxicity was evaluated. For this purpose the media was removed and CellTiterGlo® was added according to the manufactors manual. In this assay the luciferase emission readout is directly correlated with the cellular amount of ATP, low luciferase emission thus is reflecting cytotoxicity of a compound. For the evaluation of the IC50 the compound was applied in increasing concentrations yielding final concentrations per well of 5 nM-100 microM.

Hek293T = assay: Cytotoxicity in Hek293T, CellTiterGlo; conditions: 24 h
Procedure: as §1

Wnt signalling pathway = assay: Wnt-sensitive reporter gene assay (6xTCF-luciferase, pTOP-FLASH) in Hek293T cells; design: Normalized Wnt pathway (inhibitory) activity: scale not given here
Procedure: To screen for small-molecule modulators of the Wnt signalling pathway, a reporter gene based assay describing the modulation of the TCF4 transcription factor was used. More specifically 4000 Hek293T cells were seeded into 384 high density plates. 24 h after seeding a Wnt-sensitive reporter (6×TCF-luciferase (Firefly) (pTOP-FLASH; “Armadillo co activates transcription driven by the product of the drosophila segment polarity gene dTCF”, Cell, 1997, 88(6), pages 789-799) and constitutively expressed control reporter (Renilla luciferase pCMV-RL) were transfected into Hek293T. Wnt signaling was stimulated by cotransfecting mouse Wnt1, mouse Frizzled 8 and human LRP6 according to “Casein kinase 1 gamma couples Wnt receptor activation to cytoplasmic signal transduction”, Nature, 2005, 438 (7069), pages 867-872. 24 h after pathway stimulation compounds were added at a concentration of 10 microM and allowed to incubate for 24 h. For the evaluation of the IC50 the compound was applied in increasing concentrations yielding final concentrations per well of 5 nM-100 microM.

[1] = test system: human colon carcinoma cells HCT116; assay: Antiproliferative activity against HCT116, cell count
Procedure: For examination of cell line-specific cytotoxicity, compounds were applied to human colorectal cancer cells (HCT116, denoted (1); SW480, denoted (2); Dld-1, denoted (3)) and human fibroblasts (HFF-1, denoted (4); HS-68, denoted (5)), cultured in Mc Coy's (1) and Dulbecco's Modified Eagles Medium (2-5), supplemented with 10% ((1)-(3)) and 20% ((4), (5)) fetal calf serum and 1% penicillin/streptomycin. Cells were grown in T75 flasks at 37° C., 5% CO2 and trypsinized when 60-80% confluent by adding 2 ml of 0.25% Trypsin-EDTA solution. Cells were then re-suspended into culture medium and approx. 750 cells, suspended in 45 microl medium, were plated into each well of a black 384-well plate for fluorescence imaging experiments. 24-36 hr later 5 microl compound solution (100 microM compound dissolved in ultra pure water containing 1% DMSO), were added to achieve a final concentration of 10 microM and were incubated for at least 72 hr. Compound incubation was terminated by (a) fixation and (b) permeabilisation of cells, followed by (c) fluorescence labeling of cell nuclei for cytometric quantification or by immunocytochemistry for microscopic evaluation of cell morphology. The three steps were performed by replacing the solution of the previous step in each well of a 384-well plate by (a) 30 microl PBS (phosphate buffered saline) containing 5% PFA (paraformaldehyde), (b) 30 microl PBS containing 0.2% TritonX-100 and (c) 10 microl PBS containing Hoechst-33342 for cytometry or Hoechst-33342, FITC (fluorescein isothiocyanate-) labeled α-tubulin antibodies and TRITC-(tetramethylrhodamine isothiocyanate-) labeled phalloidin antibodies for microscopy. Solutions were incubated for 15 (a,b) and 30 min (c) in the dark at room temperature. Cells were washed twice between each step with 30 microl PBS. The assay system was miniaturized and adapted to automated workflow using liquid-handling robotics.
Cell line-specific cytotoxicity was quantified by counting the number of Hoechst labeled nuclei per well of a 384-well plate using a plate cytometer. Data obtained with the cytometer was analysed using standard data analysis software.
The examination of the antiproliferative activity against human colon carcinoma cells HCT116 was carried out in analogy to example 35. […] Compounds of the present invention have potent antiproliferative activity against human colon carcinoma cells as shown for HCT116 in Table 6.

## CCOC(=O)C1=C(C)Nc2c(c3nnc(-c4cccc(OC)c4)n3c(=O)n2-c2ccccc2)C1c1ccccc1 (stereo not shown) [Example 15, 3-(3-Methoxy-phenyl)-7-methyl-4-oxo-5,9-diphenyl-4,5,6,9-tetrahydro-1,2,3a,5,6-pentaaza-cyclopenta[a]naphthalene-8-carboxylic acid ethyl ester]
HepG2; 0.005 microM
  Normalized toxicity values (HepG2): 1.0700
HepG2; 0.015 microM
  Normalized toxicity values (HepG2): 1.0465
HepG2; 0.046 microM
  Normalized toxicity values (HepG2): 1.1350
HepG2; 0.137 microM
  Normalized toxicity values (HepG2): 0.9913
HepG2; 0.412 microM
  Normalized toxicity values (HepG2): 1.0390
HepG2; 1.235 microM
  Normalized toxicity values (HepG2): 0.9878
HepG2; 3.704 microM
  Normalized toxicity values (HepG2): 1.1575
HepG2; 11.111 microM
  Normalized toxicity values (HepG2): 1.1825
HepG2; 33.333 microM
  Normalized toxicity values (HepG2): 1.2000
HepG2; 100.000 microM
  Normalized toxicity values (HepG2): 1.5075
Hek293T; 0.005 microM
  Normalized toxicity values (Hek293T): 1.1205
Hek293T; 0.015 microM
  Normalized toxicity values (Hek293T): 1.0500
Hek293T; 0.046 microM
  Normalized toxicity values (Hek293T): 1.2200
Hek293T; 0.137 microM
  Normalized toxicity values (Hek293T): 0.9283
Hek293T; 0.412 microM
  Normalized toxicity values (Hek293T): 0.9603
Hek293T; 1.235 microM
  Normalized toxicity values (Hek293T): 0.8915
Hek293T; 3.704 microM
  Normalized toxicity values (Hek293T): 1.0113
Hek293T; 11.111 microM
  Normalized toxicity values (Hek293T): 1.1550
Hek293T; 33.333 microM
  Normalized toxicity values (Hek293T): 1.0515
Hek293T; 100.000 microM
  Normalized toxicity values (Hek293T): 1.4175
Wnt signalling pathway; 0.005 microM
  Normalized Wnt pathway (inhibitory) activity: 0.9417
Wnt signalling pathway; 0.015 microM
  Normalized Wnt pathway (inhibitory) activity: 0.9230
Wnt signalling pathway; 0.137 microM
  Normalized Wnt pathway (inhibitory) activity: 1.0963
Wnt signalling pathway; 0.412 microM
  Normalized Wnt pathway (inhibitory) activity: 0.9830
Wnt signalling pathway; 1.235 microM
  Normalized Wnt pathway (inhibitory) activity: 0.8830
Wnt signalling pathway; 3.704 microM
  Normalized Wnt pathway (inhibitory) activity: 0.2973
Wnt signalling pathway; 11.111 microM
  Normalized Wnt pathway (inhibitory) activity: 0.2350
Wnt signalling pathway; 33.333 microM
  Normalized Wnt pathway (inhibitory) activity: 0.4200
Wnt signalling pathway; 100.000 microM
  Normalized Wnt pathway (inhibitory) activity: 0.4505
Wnt signalling pathway; Homo sapiens, HEK-293T, Hek293T, 24 h incubation, 5 nM-100 microM, read-out: IC50 of the Wnt signalling pathway inhibiting activity
  IC50: 1340 nM
[1]; 0.005 microM
  Normalized cell count (HCT 116): 1
[1]; 0.015 microM
  Normalized cell count (HCT 116): 1.039
[1]; 0.046 microM
  Normalized cell count (HCT 116): 1.013
[1]; 0.137 microM
  Normalized cell count (HCT 116): 0.9313
[1]; 0.412 microM
  Normalized cell count (HCT 116): 0.9219
[1]; 1.235 microM
  Normalized cell count (HCT 116): 0.865
[1]; 3.704 microM
  Normalized cell count (HCT 116): 0.7235
[1]; 11.111 microM
  Normalized cell count (HCT 116): 0.2716
[1]; 33.333 microM
  Normalized cell count (HCT 116): 0.257
[1]; 100.000 microM
  Normalized cell count (HCT 116): 0.1496
